Results reported in ChEMBL document CHEMBL1139186, “Design and evaluation of 'Linkerless' hydroxamic acids as selective HDAC8 inhibitors” (Bioorg Med Chem Lett, 2007).
The source made the active and inactive calls. The rule behind the calls is not given here.

Legend:
[1] = target: T1, Protein deacetylase HDAC6 (Homo sapiens, UniProt Q9UBN7); assay: Inhibition of human HDAC6 by [3H]acetyl histone peptide assay
T1 sequence (Q9UBN7 whole entry): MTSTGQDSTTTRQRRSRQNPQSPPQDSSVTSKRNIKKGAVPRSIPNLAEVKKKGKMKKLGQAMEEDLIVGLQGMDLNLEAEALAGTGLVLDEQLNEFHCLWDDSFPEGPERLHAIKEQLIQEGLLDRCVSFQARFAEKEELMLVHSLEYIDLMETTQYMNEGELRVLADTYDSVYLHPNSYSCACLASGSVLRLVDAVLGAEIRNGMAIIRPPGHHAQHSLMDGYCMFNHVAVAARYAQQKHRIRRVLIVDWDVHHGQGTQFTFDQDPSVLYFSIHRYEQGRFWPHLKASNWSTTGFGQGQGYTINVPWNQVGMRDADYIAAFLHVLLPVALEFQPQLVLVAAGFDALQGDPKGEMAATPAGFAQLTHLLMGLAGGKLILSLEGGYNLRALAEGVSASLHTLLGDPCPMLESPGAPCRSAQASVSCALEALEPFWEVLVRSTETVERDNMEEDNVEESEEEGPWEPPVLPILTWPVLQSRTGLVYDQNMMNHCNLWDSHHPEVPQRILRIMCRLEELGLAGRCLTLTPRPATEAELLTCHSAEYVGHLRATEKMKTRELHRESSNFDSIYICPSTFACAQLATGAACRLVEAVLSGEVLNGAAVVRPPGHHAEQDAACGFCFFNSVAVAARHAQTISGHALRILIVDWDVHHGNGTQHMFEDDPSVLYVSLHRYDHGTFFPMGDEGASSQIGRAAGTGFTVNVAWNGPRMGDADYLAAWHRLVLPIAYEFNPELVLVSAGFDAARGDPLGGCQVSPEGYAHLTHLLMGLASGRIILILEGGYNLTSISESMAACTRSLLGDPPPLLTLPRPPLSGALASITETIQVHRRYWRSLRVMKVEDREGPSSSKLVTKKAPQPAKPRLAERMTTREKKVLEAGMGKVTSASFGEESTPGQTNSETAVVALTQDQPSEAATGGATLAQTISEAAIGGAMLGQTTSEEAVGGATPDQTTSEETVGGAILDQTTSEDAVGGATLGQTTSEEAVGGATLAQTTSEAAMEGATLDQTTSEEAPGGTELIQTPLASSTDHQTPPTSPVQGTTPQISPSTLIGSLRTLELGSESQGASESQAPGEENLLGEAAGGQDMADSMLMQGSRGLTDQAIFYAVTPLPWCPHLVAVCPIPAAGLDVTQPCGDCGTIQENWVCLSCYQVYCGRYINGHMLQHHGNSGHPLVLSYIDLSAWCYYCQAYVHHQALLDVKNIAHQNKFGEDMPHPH

Histone deacetylase 8 = target: T2, Histone deacetylase 8 (Homo sapiens, UniProt Q9BY41)
T2 sequence (Q9BY41 whole entry): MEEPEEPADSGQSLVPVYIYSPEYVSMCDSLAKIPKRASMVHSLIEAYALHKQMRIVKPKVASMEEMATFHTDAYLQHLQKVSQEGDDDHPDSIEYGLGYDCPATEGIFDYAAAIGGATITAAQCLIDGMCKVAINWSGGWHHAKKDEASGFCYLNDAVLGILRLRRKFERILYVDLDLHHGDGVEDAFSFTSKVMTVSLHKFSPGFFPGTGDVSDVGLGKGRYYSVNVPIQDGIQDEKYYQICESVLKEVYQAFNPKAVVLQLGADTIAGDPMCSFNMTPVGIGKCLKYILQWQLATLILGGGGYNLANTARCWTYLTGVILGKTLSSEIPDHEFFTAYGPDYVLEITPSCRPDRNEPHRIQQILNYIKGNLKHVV
Description: Inhibition of human HDAC8 by [3H]acetyl histone peptide assay

Histone deacetylase 1 = Histone deacetylase 1 (Homo sapiens, UniProt Q13547); assay: Inhibition of human HDAC1 by [3H]acetyl histone peptide assay
HEK293 [2] = assay: Increase in lysine-acetylated tubulin levels in HEK293 cells by Western blot; type: functional, cell-based; conditions: Homo sapiens
HeLa [3] = assay: Increase in lysine-acetylated tubulin levels in HeLa cells by Western blot; type: functional, cell-based; conditions: Homo sapiens
HEK293 [4] = assay: Increase in lysine-acetylated histone H4 levels in HEK293 cells by Western blot; type: functional, cell-based; conditions: Homo sapiens
HeLa [5] = assay: Increase in lysine-acetylated histone H4 levels in HeLa cells by Western blot; type: functional, cell-based; conditions: Homo sapiens

Sequence of Histone deacetylase 1 (Q13547 whole entry): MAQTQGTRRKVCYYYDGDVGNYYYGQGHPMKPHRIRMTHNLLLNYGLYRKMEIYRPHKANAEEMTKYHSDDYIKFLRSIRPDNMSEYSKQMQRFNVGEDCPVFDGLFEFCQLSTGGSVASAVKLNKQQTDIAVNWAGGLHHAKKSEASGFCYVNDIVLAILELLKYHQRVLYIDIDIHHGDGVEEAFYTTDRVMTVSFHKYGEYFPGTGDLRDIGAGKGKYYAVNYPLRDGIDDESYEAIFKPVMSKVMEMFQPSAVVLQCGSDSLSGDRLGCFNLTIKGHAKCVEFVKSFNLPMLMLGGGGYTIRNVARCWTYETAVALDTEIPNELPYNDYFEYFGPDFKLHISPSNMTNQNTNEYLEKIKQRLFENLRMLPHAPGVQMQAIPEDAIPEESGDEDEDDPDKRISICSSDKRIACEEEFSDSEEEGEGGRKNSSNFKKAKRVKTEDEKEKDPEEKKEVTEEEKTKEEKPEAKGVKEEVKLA

Row | IC50 [1] [µM] | IC50 (Histone deacetylase 8) [µM] | IC50 (Histone deacetylase 1) [µM] | Compound | Activity (HEK293 [2]) | Activity (HeLa [3]) | Activity (HEK293 [4]) | Activity (HeLa [5])
1 | > 100 | 14 | > 100 | O=C(NO)c1cccc2ccccc12 | – | – | – | –
2 | – | 6.6 | – | O=C(NO)c1cccc(Oc2ccccc2)c1 | – | – | – | –
3 | 82 | 0.7 | > 100 | O=C(/C=C/c1cccc2ccccc12)NO | Active | Active | Active | Active
4 | > 100 | 20 | > 100 | O=C(NO)c1cccc(-c2ccccc2)c1 | – | – | – | –

Row | Compound | IC50 [1] [µM] | IC50 (Histone deacetylase 8) [µM] | IC50 (Histone deacetylase 1) [µM] | Activity (HEK293 [2]) | Activity (HeLa [3]) | Activity (HEK293 [4]) | Activity (HeLa [5])
5 | O=C(NO)c1ccc(-c2cccc3ccccc23)cc1 | 55 | 0.3 | > 100 | – | – | – | –
